# Source: patent US9018213B2, “Alicyclic[c] benzopyrone derivatives and uses thereof” (Huazhong University of Science & Technology, priority 2011, dated 2015)
# Assays:
# 5HT1A receptor = 5HT1A receptor (Rattus norvegicus (Rat), UniProt P19327); assay: 5HT1A receptor binding assay (3H-8-OH-DPAT)
# Protocol: Preparation of 5HT1A Membrane
# Incubation at 37° C. was conducted for 10 min, the weight of the tubes were adjusted using a balance after incubation. […] Centrifugation was conducted and repeated 3 times.
# Materials for the Receptor Binding Assay
# 5HT2A receptor = 5HT2A receptor (Rattus norvegicus (Rat), UniProt P14842); assay: 5HT2A receptor binding assay ([3H]-Ketanserin)
# D3 receptor = D3 receptor (Homo sapiens (Human), UniProt P35462); assay: D3 receptor competitive binding assay ([3H]-Spiperone, HEK-293 cells)
# Protocol: After the cells were centrifuged at 1000 rpm for 5 min, the supernatant was discarded, and the cell pellet was collected and stored in a -20° C. fridge for reservation. It was re-suspended with Tris-Cl (pH 7.4) in the assay. […] Tris was divided into aliquots by […] Technology Inc. Procedures Competitive binding test for receptors: 20 μl of each of the test compounds and 20 μl of the radioactive ligand together with 160 μl of the receptor proteins were added into the reaction tubes, and the final concentrations of the test compound and the positive drug were all 10 μmol/L. After 50 min of incubation in 30° C. water bath, the tubes were immediately moved to ice bath to terminate the reactions. GF/C glass fiber filter papers were used for rapid sucking filtration on a Millipore cell sample collector, elution buffer (50 mM Tris-HCl, PH 7.4) was applied for 3 ml×3 times, and microwave was applied for 4-5 min for drying. The filter papers were moved into 0.5 ml centrifuge tubes, and 500 μl of lipid-soluble scintillation solution was added. The tubes were allowed to stand still for over 30 min in dark, and the intensities of radioactivity were measured by a counter.
# 5HT2C receptor = 5HT2C receptor (Rattus norvegicus (Rat), UniProt P08909); assay: 5HT2C receptor binding assay ([3H]-mesulergine)
# mice of Kunming breed = assay: MK-801 induced high activity; type: in vivo
# Protocol: Healthy mice of Kunming breed (with half male and half female, (20±2) g) were provided by Qinglongshan Animal Cultivation Center, Nanjing.
# Ascorbic acid was provided by Sinopharm Chemical Reagent Co. Ltd.
# Tween 80, with the concentration of 10%.
# Subsequently, the spontaneous activities of the mice of each group in 90 min were measured.
# KM mice [1] = assay: Apomorphine induced clambering assay of mice; type: in vivo; settings: for Scoring (value), apomorphine induced clambering: x ± s, n = 10
# Protocol: Apomorphine Induced Clambering Assay of Mice
# Healthy KM mice (male, with body weight of 18-22 g) were provided by Qinglongshan Animal Cultivation Center, Nanjing.
# Apomorphine provided by Sigma Company was dissolved in 0.9% NaCl (containing 0.1% vitamin C) before use, and was freshly formulated before use.
# Vitamin C, F20061113, was provided by Sinopharm Chemical Reagent Co. Ltd.
# Sodium chloride injection, H32026305, was provided by Xuzhou No. 5 Pharmaceutical Factory Co. Ltd.
# Instruments: self-made clambering cage, chronograph.
# Procedures: apomorphine induced clambering assay of mice
# After 5 min of adaptation, the behaviors of the mice at 10-11, 20-21, and 30-31 min after the injection of apomorphine were observed and scored. Scoring criteria: 4 paws on the floor was scored as 0; 2 forepaws on the cage was scored as 1; and 4 paws on the cage was scored as 2.
# Catalepsy assay = settings: both, Kunming (KM), mouse, in vivo, po
# Protocol: (§1) Healthy mice of Kunming breed (with half male and half female, (22±2) g) were provided by Qinglongshan Animal Cultivation Center, Nanjing.
# (§2) The durations for the mice to maintain the posture with the two forepaws on the bars were recorded, and 30 s of spasticity without moving was considered as the positive response. In the case the forepaws of the mice were not put down persistently, the observation was terminated at 60 s. The numbers of animals with positive response in each of the compound dosage groups were counted.
# KM mice [2] = assay: Catalepsy assay; settings: mouse, in vivo
# Protocol: as §1, §2
# in vivo = settings: both sexes, mouse, in vivo; po, mice, single intragastric administration; read-out: LD50
# Protocol: Limit Test of Sequential Assay
# KM mice (half male and half female) were randomly divided into several groups (with 2-5 mice in each group), which were respectively the 2000 mg/kg groups for each compound, and the solvent group. 0.2 ml/10 g were administered intragastrically. The death of the animals in 3 days were observed. (In the case 3 or more animals survived in 3 days without notable abnormity in their life states, the observation was continued until the assay was completed in 7 days. In the case 3 or more animals died in 3 days, the median lethal dose method was used to determine the LD50).
# Pre-Assay for the Median Lethal Dose Method
# 0.2 ml/10 g were administered intragastrically, and the death of the animals in 1-3 days were observed.
# D2 receptor = D2 receptor (Rattus norvegicus (Rat), UniProt P61169); assay: D2 receptor inhibition binding assay (3H-Spiperone)
# Chain of D2 receptor (P61169 whole entry): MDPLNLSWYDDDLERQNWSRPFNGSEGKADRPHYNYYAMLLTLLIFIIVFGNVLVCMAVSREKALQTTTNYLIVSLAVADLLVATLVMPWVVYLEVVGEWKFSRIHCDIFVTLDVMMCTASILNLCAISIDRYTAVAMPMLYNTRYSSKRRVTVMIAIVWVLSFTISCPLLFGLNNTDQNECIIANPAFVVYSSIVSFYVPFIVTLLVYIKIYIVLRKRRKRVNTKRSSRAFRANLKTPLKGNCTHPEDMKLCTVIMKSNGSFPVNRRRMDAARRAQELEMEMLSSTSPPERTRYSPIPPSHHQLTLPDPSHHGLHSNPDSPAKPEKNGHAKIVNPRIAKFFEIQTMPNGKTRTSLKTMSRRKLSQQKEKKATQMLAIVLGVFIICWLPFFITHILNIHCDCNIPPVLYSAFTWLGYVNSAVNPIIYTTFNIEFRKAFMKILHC
# Protocol: Rats were sacrificed by cervical dislocation on ice. Cerebral cortex was rapidly taken, and 2 cerebral cortexes were combined into a centrifuge tube, to which 3 ml of buffer (0.05 M Tris-HCl buffer, containing NaCl 120 mM, KCl 5 mM, MgCl2 1 mM, CaCl2 1 mM) was added, homogenization was conducted for 3-4 s at level 4 for four times, and then 5 ml of buffer was then added. The weight of the homogenized tubes were adjusted using a balance, and centrifugation was conducted at 12000 r, 4° C. for 20 min. The supernatant was discarded, and 3 ml of B solution was added. Vortex mixer was used for blending, and then 5 ml of B solution was added. Centrifugation was conducted and repeated 3 times. After the centrifugations, the supernatant was discarded, and the pellets were stored at −80° C. for future use.
# Beckman LS-6500 Multi-function Liquid Scintillation Counter was used.
# (1) The prepared membrane was first applied with appropriate amount of homogenized liquid, and homogenizer was used for evenly dispersing. 15 tubes were mixed into a 100 ml container, and appropriate amount of homogenized liquid was added to give 50 ml of membrane suspension, which was reserved for future use.
# (2) 100 μL of membrane preparation and 100 μL of buffer were added into each reaction tube.
# (3) 100 μL of homogenized liquid was added into the total binding tube (TB), 100 μL of Butaclamol (final concentration 10^−5 M) was added into the non-specific binding tube (NB), and 100 μL of the test compound (final concentration 10^−5 M) was added into the specific binding tube (SB) for each compound.
# (5) Each of the reaction tubes was incubated at 37° C. for 20 min. After the reaction was completed, the bound ligands were rapidly filtered under reduced pressure, and the ice-chilled assay buffer was used for adequate washing. The filter was taken out and put into a 3 ml scintillation vial, and 2 ml of toluene scintillation solution was added and blended.
# (6) The scintillation vials were put into Liquid Scintillation Counter for counting. Inhibitory rate (I %)=(Total binding tube cpm−compound cpm)/(Total binding tube cpm−non-specific binding tube cpm)×100%
# Each assay for the compounds was conducted in duplicate.
# Chain of 5HT2A receptor (P14842 whole entry): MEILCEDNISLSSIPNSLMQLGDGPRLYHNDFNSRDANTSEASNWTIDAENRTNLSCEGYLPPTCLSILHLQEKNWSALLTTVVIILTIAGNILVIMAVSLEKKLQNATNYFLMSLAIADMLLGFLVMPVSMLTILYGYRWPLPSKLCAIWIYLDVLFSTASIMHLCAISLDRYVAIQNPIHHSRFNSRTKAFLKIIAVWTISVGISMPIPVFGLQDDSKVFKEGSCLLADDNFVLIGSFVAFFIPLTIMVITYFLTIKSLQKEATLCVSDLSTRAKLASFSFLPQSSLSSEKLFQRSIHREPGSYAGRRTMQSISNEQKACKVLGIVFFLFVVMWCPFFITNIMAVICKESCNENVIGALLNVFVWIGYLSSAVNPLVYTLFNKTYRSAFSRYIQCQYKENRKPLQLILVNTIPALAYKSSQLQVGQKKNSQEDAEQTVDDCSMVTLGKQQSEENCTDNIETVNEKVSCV
# Chain of D3 receptor (P35462 whole entry): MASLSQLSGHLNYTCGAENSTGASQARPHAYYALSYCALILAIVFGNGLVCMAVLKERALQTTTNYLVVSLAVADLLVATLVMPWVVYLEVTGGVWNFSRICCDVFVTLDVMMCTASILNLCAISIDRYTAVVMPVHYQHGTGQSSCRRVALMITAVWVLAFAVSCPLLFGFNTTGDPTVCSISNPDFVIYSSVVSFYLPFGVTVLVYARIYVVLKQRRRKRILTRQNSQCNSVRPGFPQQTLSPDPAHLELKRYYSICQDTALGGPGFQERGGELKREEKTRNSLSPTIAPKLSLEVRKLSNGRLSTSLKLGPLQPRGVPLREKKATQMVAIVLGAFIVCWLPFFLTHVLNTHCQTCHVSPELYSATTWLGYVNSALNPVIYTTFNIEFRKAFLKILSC
# Chain of 5HT2C receptor (P08909 33-460): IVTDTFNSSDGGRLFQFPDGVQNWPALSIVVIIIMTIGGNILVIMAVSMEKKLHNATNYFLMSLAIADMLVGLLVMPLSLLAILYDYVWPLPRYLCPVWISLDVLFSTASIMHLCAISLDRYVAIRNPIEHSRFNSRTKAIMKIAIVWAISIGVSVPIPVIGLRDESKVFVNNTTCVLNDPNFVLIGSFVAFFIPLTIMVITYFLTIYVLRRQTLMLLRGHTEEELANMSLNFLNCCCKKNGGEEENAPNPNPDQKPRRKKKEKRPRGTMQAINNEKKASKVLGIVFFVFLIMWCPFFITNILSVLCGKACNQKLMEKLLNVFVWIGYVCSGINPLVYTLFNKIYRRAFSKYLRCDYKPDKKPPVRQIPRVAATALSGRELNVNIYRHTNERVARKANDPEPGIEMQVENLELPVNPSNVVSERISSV
# Chain of 5HT1A receptor (P19327 whole entry): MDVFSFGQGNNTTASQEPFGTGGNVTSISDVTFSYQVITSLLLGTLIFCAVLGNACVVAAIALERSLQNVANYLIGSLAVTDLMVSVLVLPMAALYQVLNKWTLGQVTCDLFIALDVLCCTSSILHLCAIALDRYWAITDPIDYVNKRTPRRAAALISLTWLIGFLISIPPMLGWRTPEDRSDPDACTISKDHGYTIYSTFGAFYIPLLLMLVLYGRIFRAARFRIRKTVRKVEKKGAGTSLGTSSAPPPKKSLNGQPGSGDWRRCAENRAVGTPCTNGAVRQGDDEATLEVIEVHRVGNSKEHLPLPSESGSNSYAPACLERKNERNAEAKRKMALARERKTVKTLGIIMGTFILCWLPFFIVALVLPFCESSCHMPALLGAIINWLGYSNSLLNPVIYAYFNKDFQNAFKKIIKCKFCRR
compound,measurement,setting,value
"COc1ccccc1N1CCN(CCCCOc2ccc3c4c(c(=O)oc3c2)CCC4)CC1 [Compound 7, 7-{4-[4-(2-methoxyphenyl)piperazin-1-yl]-butoxy}-2,3-dihydro-1H-cyclopenteno[c]benzopyran-4-one]",IC50,5HT1A receptor,0.08 nM
same,affinity for 5-HT1A receptor (in words),5HT1A receptor; in vitro assay,relatively stronger affinities
same,IC50,5HT2A receptor,0.78 nM
same,affinity for 5-HT2A receptor (in words),5HT2A receptor; in vitro assay,relatively stronger affinities
same,IC50,D3 receptor,7.4 nM
same,affinity for D3 receptor (in words),D3 receptor; in vitro assay,relatively stronger affinities
same,IC50,5HT2C receptor,1300 nM
same,affinity for 5HT2C (in words),5HT2C receptor; in vitro assay,lower affinity
same,ED50,"mice of Kunming breed; Mus musculus, po, mice",2.05 mg/kg
same,effect on MK-801 induced high activity (in words),mice of Kunming breed; compared to the model group,significantly improve
same,ED50,"KM mice [1]; Mus musculus, po, mice, read-out: apomorphine induced clambering ED50",0.13 mg/kg
same,effect on apomorphine induced clambering symptoms (in words),KM mice [1]; compared to the model group,effectively improve
same,"Scoring (value), apomorphine induced clambering",KM mice [1]; dosage 3 mg/kg,3.50 ± 1.96
same,"Scoring (value), apomorphine induced clambering",KM mice [1]; dosage 10 mg/kg,2.60 ± 1.58
same,"Scoring (value), apomorphine induced clambering",KM mice [1]; dosage 30 mg/kg,1.80 ± 1.40
same,"Scoring (value), apomorphine induced clambering",KM mice [1]; dosage 100 mg/kg,0.00 ± 0.00
same,ED50,Catalepsy assay,261 mg/kg
same,EPS at effective dosage (in words),KM mice [2],did not cause EPS at effective dosage
same,LD50,in vivo,> 2000 mg/kg
same,IC50,D2 receptor,2.1 nM
same,affinity for D2 receptor (in words),D2 receptor; in vitro assay,relatively stronger affinities
